Results reported in patent publication US9586945B2, “Aminochromane, aminothiochromane and amino-1,2,3,4-tetrahydroquinoline derivatives, pharmaceutical compositions containing them, and their use in therapy” (AbbVie Deutschland GmbH & Co. KG, priority 2013, dated 2017).

Tests used:
human GlyT1c transporter = human GlyT1c transporter (Homo sapiens (Human), UniProt P48067); assay: Radioligand binding assay using recombinant CHO cell membranes expressing human GlyT1; conditions: examples marked * tested as fumarate salts, read-out: radioligand binding Kiapp
human GlyT1c transporter, sequence (P48067 whole entry): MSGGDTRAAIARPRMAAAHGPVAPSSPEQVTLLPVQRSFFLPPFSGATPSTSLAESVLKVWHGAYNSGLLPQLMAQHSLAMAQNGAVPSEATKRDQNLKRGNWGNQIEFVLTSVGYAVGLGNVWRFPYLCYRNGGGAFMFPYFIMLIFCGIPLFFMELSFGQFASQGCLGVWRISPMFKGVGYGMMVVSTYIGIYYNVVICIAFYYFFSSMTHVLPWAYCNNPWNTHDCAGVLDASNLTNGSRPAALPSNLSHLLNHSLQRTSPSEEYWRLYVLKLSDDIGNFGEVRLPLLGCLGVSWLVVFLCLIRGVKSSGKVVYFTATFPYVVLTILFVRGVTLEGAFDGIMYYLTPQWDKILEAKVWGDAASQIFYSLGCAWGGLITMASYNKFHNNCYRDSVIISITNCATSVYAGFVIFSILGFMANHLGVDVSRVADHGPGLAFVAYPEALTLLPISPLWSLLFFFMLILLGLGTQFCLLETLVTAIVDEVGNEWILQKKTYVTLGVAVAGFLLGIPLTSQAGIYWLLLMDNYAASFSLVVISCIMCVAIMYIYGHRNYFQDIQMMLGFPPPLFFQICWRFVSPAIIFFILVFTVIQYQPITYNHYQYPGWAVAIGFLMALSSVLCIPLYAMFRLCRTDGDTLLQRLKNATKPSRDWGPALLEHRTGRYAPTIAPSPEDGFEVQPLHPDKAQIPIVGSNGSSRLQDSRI

[1] = Metabolic stability in human liver microsomes; type: in vitro ADME; conditions: 0.5 μM test substance, NADPH, 37° C., scaled microsomal clearance, examples marked * tested as fumarate salts
Experimental: Metabolic stability was determined as follows:
0.5 μM test substance was preincubated together with human liver microsomes (0.25 mg of microsomal protein/[…]) in 0.05 M potassium phosphate buffer of pH 7.4 in microtiter plates at 37° C. for 5 min. The reaction was started by adding NADPH (1.0 mM). After 0, 5, 10, 15, 20 and 30 min the reaction was stopped and cooled with twice the amount of quench solution consisting of acetonitrile/methanol 1:1, and containing 0.2 μM carbutamide. The samples were frozen until analyzed. The remaining concentration of undegraded test substance was determined by LC MSMS. The half-life (T1/2) was determined from the gradient of the signal of test substance/unit time plot, al-lowing to calculate the half-life of the test substance, assuming first order kinetics, from the de-crease in the concentration of the compound with time. The microsomal clearance (mClint) was calculated as follows: mClint=((ln(2)/t1/2)/Microsomal Protein Concentration (mg/ml))*1000, leading to the unit of uL/min/mg. The scaled clearance (mClin_scaled) was calculated as mCLint_scaled=m CLint*(Microsomal Yield (mg/kg BW))/1000000*60, leading to the units L/hr/kg. The Microsomal Yield is defined by the specifics of the used microsomes. Calculations were modified from references: Di, The Society for Biomolecular Screening, 2003, 453-462; Obach, DMD, 1999 vol 27. N 11, 1350-1359.

Ki (human GlyT1c transporter) | human mCl [1] | SMILES
≤ 1000 nM | ≦5 L/h/Kg | CCCS(=O)(=O)NC1CN(c2ccc3c(c2)[C@H](Cc2ccccc2)[C@H](NCC2CC2)CO3)C1 (relative stereo) [Example 31, Cis-N-(1-(4-benzyl-3-((cyclopropylmethyl)amino)chroman-6-yl)azetidin-3-yl)propane-1-sulfonamide]
≤ 100 nM | ≦50 L/h/Kg | O=S(=O)(NC1CN(c2cc3c(cc2F)OC[C@@H](N2CCC2)[C@H]3Cc2ccccc2)C1)c1cncc(F)c1 (relative stereo) [Example 26, Cis-1-(4-benzyl-7-fluoro-6-(3-(5-fluoropyridine-3-sulfonamido)azetidin-1-yl)chroman-3-yl)azetidin-1-ium (E)-3-carboxyacrylate]
≤ 100 nM | ≦5 L/h/Kg | CCCS(=O)(=O)NC1CN(c2cc3c(cc2F)OCC(NC)C3Cc2ccccc2)C1 (single isomer, unassigned) [Example 28, Cis-N-(1-(4-benzyl-7-fluoro-3-(methylamino)chroman-6-yl)azetidin-3-yl)propane-1-sulfonamide]
≤ 1000 nM | ≦5 L/h/Kg | CCS(=O)(=O)NC1CN(c2ccc3c(c2)[C@H](Cc2ccccc2)[C@H](N2CCC2)CO3)C1 (relative stereo) [Example 2, Cis-N-(1-(3-(azetidin-1-yl)-4-benzylchroman-6-yl)azetidin-3-yl)ethanesulfonamide]
≤ 100 nM | ≦5 L/h/Kg | O=S(=O)(NC1CN(c2ccc3c(c2)[C@H](Cc2ccccc2)[C@H](N2CCC2)CO3)C1)c1cccnc1F (relative stereo) [Example 10, Cis-N-(1-(3-(azetidin-1-yl)-4-benzylchroman-6-yl)azetidin-3-yl)-2-fluoropyridine-3-sulfonamide]
≤ 1000 nM | ≦50 L/h/Kg | O=S(=O)(NC1CN(c2cc3c(cc2F)OC[C@@H](N2CCC2)[C@H]3Cc2ccccc2)C1)c1cccnn1 (relative stereo) [Example 9, Cis-N-(1-(3-(azetidin-1-yl)-4-benzyl-7-fluorochroman-6-yl)azetidin-3-yl)pyridazine-3-sulfonamide]
≤ 1000 nM | ≦5 L/h/Kg | CCCS(=O)(=O)NC1CN(c2ccc3c(c2)[C@H](Cc2ccccc2)[C@H](NC2CCC2)CO3)C1 (relative stereo) [Example 32, Cis-N-(1-(4-benzyl-3-(cyclobutylamino)chroman-6-yl)azetidin-3-yl)propane-1-sulfonamide]
≤ 100 nM | ≦5 L/h/Kg | O=S(=O)(CC1CC1)NC1CN(c2ccc3c(c2)[C@H](Cc2ccccc2)[C@H](N2CCC2)CO3)C1 (relative stereo) [Example 4, Cis-N-(1-(3-(azetidin-1-yl)-4-benzylchroman-6-yl)azetidin-3-yl)-1-cyclopropylmethanesulfonamide]
≤ 100 nM | ≦5 L/h/Kg | CCCN[C@@H]1COc2ccc(N3CC(NS(=O)(=O)CCC)C3)cc2[C@@H]1Cc1ccccc1 (relative stereo) [Example 29, Cis-N-(1-(4-benzyl-3-(propylamino)chroman-6-yl)azetidin-3-yl)propane-1-sulfonamide]
≤ 10 nM | ≦5 L/h/Kg | CNC1COc2ccc(N3CC(NS(=O)(=O)CC4CC4)C3)cc2C1Cc1ccccc1 (racemic) [Example 13, Cis-N-(1-(4-benzyl-3-(methylamino)chroman-6-yl)azetidin-3-yl)-1-cyclopropylmethanesulfonamide]
≤ 1000 nM | ≦50 L/h/Kg | O=S(=O)(NC1CN(c2cc3c(cc2F)OC[C@@H](N2CCC2)[C@H]3Cc2ccccc2)C1)c1cccnc1F (relative stereo) [Example 8, Cis-N-(1-(3-(azetidin-1-yl)-4-benzyl-7-fluorochroman-6-yl)azetidin-3-yl)-2-fluoropyridine-3-sulfonamide]
≤ 10 nM | ≦5 L/h/Kg | Cn1cnc(S(=O)(=O)NC2CN(c3ccc4c(c3)C(Cc3ccccc3)C(N3CCC3)CO4)C2)c1 (stereo not shown) [Example 1, N-[1-[3-(azetidin-1-yl)-4-benzyl-chroman-6-yl]azetidin-3-yl]-1-methyl-imidazole-4-sulfonamide]
≤ 100 nM | ≦5 L/h/Kg | CCCS(=O)(=O)NC1CN(c2ccc3c(c2)[C@H](Cc2ccccc2)[C@H](N2CCC2)CO3)C1 (relative stereo) [Example 3, Cis-N-(1-(3-(azetidin-1-yl)-4-benzylchroman-6-yl)azetidin-3-yl)propane-1-sulfonamide]
≤ 10 nM | ≦5 L/h/Kg | CCCS(=O)(=O)NC1CN(c2ccc3c(c2)C(Cc2ccccc2)C(NC)CO3)C1 (racemic) [Example 11, Cis-N-(1-(4-benzyl-3-(methylamino)chroman-6-yl)azetidin-3-yl)propane-1-sulfonamide]
≤ 1000 nM | ≦5 L/h/Kg | CNC1COc2ccc(N3CC(NS(=O)(=O)CC4CC4)C3)cc2C1Cc1ccccc1 (single isomer, unassigned) [Example 25, Cis-N-(1-(4-benzyl-3-(methylamino)chroman-6-yl)azetidin-3-yl)-1-cyclopropylmethanesulfonamide]
≤ 100 nM | ≦5 L/h/Kg | CCS(=O)(=O)NC1CN(c2ccc3c(c2)[C@H](Cc2ccccc2)[C@H](NC)CO3)C1 (relative stereo) [Example 12, Cis-N-(1-(-4-benzyl-3-(methylamino)chroman-6-yl)azetidin-3-yl)ethanesulfonamide]
≤ 10 nM | ≦5 L/h/Kg | CCCS(=O)(=O)NC1CN(c2ccc3c(c2)C(Cc2ccccc2)C(NC)CO3)C1 (single isomer, unassigned) [Example 22, Cis-N-(1-(4-benzyl-3-(methylamino)chroman-6-yl)azetidin-3-yl)propane-1-sulfonamide]
≤ 10 nM | ≦5 L/h/Kg | N[C@@H]1COc2ccc(N3CC(NS(=O)(=O)CC4CC4)C3)cc2[C@@H]1Cc1ccccc1 (relative stereo) [Example 21, Cis-N-(1-(3-amino-4-benzylchroman-6-yl)azetidin-3-yl)-1-cyclopropylmethanesulfonamide]
≤ 100 nM | ≦5 L/h/Kg | Cn1cc(S(=O)(=O)NC2CN(c3ccc4c(c3)[C@H](Cc3ccccc3)[C@H](N3CCC3)CO4)C2)cn1 (relative stereo) [Example 5, Cis-N-(1-(3-(azetidin-1-yl)-4-benzylchroman-6-yl)azetidin-3-yl)-1-methyl-1H-pyrazole-4-sulfonamide]
≤ 10 nM | ≦5 L/h/Kg | Cn1cc(S(=O)(=O)NC2CN(c3ccc4c(c3)[C@H](Cc3ccccc3)[C@H](N3CCC3)CO4)C2)nn1 (relative stereo) [Example 6, Cis-N-(1-(3-(azetidin-1-yl)-4-benzylchroman-6-yl)azetidin-3-yl)-1-methyl-1H-1,2,3-triazole-4-sulfonamide]
≤ 10 nM | ≦50 L/h/Kg | CCCS(=O)(=O)NC1CN(c2cc3c(cc2F)OCC(NC)C3Cc2ccccc2)C1 (single isomer, unassigned) [Example 27, Cis-N-(1-(4-benzyl-7-fluoro-3-(methylamino)chroman-6-yl)azetidin-3-yl)propane-1-sulfonamide]
≤ 10 nM | ≦50 L/h/Kg | CNC1COc2ccc(N3CC(NS(=O)(=O)CC4CC4)C3)cc2C1Cc1ccccc1 (single isomer, unassigned) [Example 24, Cis-N-(1-(4-benzyl-3-(methylamino)chroman-6-yl)azetidin-3-yl)-1-cyclopropylmethanesulfonamide]
≤ 100 nM | ≦50 L/h/Kg | CCCS(=O)(=O)NC1CN(c2ccc3c(c2)[C@H](Cc2ccccc2)[C@H](N(CC)CC)CO3)C1 (relative stereo) [Example 30, Cis-N-(1-(4-benzyl-3-(diethylamino)chroman-6-yl)azetidin-3-yl)propane-1-sulfonamide]
